{
  "source": "paper PMC7241010",
  "about": "“In Vivo and In Vitro Study of N-Methyltaurine on Pharmacokinetics and Antimuscle Atrophic Effects in Mice” (ACS Omega, 2020)",
  "key": {"C2C12 myotubes [1]": {"test_system": "C2C12 myotubes", "experiment": "Dex-induced myotube atrophy in C2C12 cells (myotube diameter)", "type": "cell-based, mouse", "conditions": "24 h", "experimental": "To explore the beneficial effect of NMT against skeletal muscle atrophy in mice, we investigated its protective effect using cultures of C2C12 myotubes.\nC2C12 mouse myoblasts were purchased from ATCC (American Type Culture Collection) and were cultured in DMEM containing 10% fetal bovine serum. Cell lines were not tested for mycoplasma contamination in the present study. To induce differentiation of the myotubes, cells were cultured in DMEM containing 2% fetal bovine serum for 1 week. After differentiation, cells were treated with Dex (final concentration, 50 μM) with or without NMT.[28] Myotube diameter was measured from microscopic images taken after treatment with Dex."}, "ICR mice": {"test_system": "ICR mice", "experiment": "Dexamethasone-induced muscle atrophy model in ICR mice", "type": "in vivo, mouse", "experimental": "Next, to investigate the effect of NMT on skeletal muscle atrophy, a mouse atrophy model induced by Dex was employed[41] (Figure 5). Mice were administered with Dex daily (i.p., 10 mg/kg body weight) and maintained on drinking water either with no addition or containing 0.5% NMT.\nTo induce muscle atrophy in ICR mice, Dex was suspended in saline (10 mg/mL), and the mixture was intraperitoneally (i.p.) injected at 10 mg/kg body weight once a day for 10 days.[41] Body weight was monitored daily. Then, mice were euthanized by cervical dislocation, and muscles were isolated from the mice. The isolated tissue was immediately froze in liquid nitrogen and stored at −80 °C."}, "[2]": {"experiment": "Pharmacokinetics and oral bioavailability of NMT in mice (plasma NMT by HPLC)", "type": "in vivo, mouse", "conditions": "for AUC(0-t): read-out: AUC0–180min (converted)", "experimental": "To study the pharmacokinetic parameters and the oral bioavailability of NMT, we tested the serum concentration of NMT after p.o. or i.v. injection of NMT (Figure 2). Biological fluid was sampled following the injection of NMT. […] Oral bioavailability is defined as the fraction of the dose that reaches the systemic circulation. Blood samples were collected at 10 to 180 min after NMT administration and then examined by HPLC.\nAll experimental procedures were approved by the Institutional Animal Care and Use Committee of the Fukui Prefectural University. Three-month-old male ICR mice were used for this study. […] Blood samples were collected from the facial vein (for i.v. injection) or the tail vein (for p.o. injection) at 10, 20, 30, 60, 120, and 180 min after NMT administration.\n(§1) Plasma samples were mixed with an equal volume of 5% sulfosalicylic acid (SSA) containing the internal standard chemical sarcosine (0.1 mM). Tissues in 10 volumes of 5% SSA containing an internal control were homogenized using a Polytron homogenizer. Samples were centrifuged, and the supernatant was filtered with 0.45 μm filters and then neutralized with NaHCO3.\n(§2) NMT was measured by HPLC after derivatization with 9-fluorenylmethyloxycarbonyl chloride (FMOC-Cl) according to a previous report with brief modification.[49] First, equal volumes of o-phthalaldehyde (OPA) reagent (5 mM OPA, 23 mM 3-mercaptopropionic acid, 10 mM boric acid, pH 10.4) was added to acid-extracted samples and incubated at room temperature for 1 min for the derivatization of the primary amine. Then, 1 volume of FMOC-Cl reagent (3 mM FMOC-Cl in acetone) was added to the mixture and incubated for additional 1 min for the derivatization of residual secondary amine. After dilution with HPLC mobile phase buffer A (10 mM potassium phosphate, pH 7.3), samples were subjected to HPLC analysis performed on an UltiMate 3000 rapid separation binary system (Thermo Fisher, USA) or Prominence HPLC system (Shimadzu, Japan). Samples were injected into a ZORBAX Eclipse Plus C18 column (Agilent, USA). Mobile phases A (10 mM potassium phosphate, pH 7.3) and B (acetonitrile) were used. The column oven temperature was set at 40 °C. The flow rate of the mobile phase was 1.5 mL/min. The gradient of the mobile phase was increased from 2 to 88% buffer B (from 0.84 to 11.9 min) and was kept at 100% buffer B for 3 min followed by 2% for 15 min. N-Methyltaurine derivatized by FMOC-Cl was monitored by a fluorescence detector (excitation: 266 nm, emission: 305 nm) and diode array detector (Shimadzu).\nPharmacokinetic parameters were calculated by using R (Package “PK”, ver. 1.3-4)."}, "[3]": {"experiment": "Tissue distribution of NMT after 0.5% NMT in drinking water", "type": "in vivo, mouse", "conditions": "mice", "experimental": "To evaluate the tissue distribution of NMT in mice after administration in the drinking water, the concentration of NMT was measured in tissues and serum 4 days after the original administration (Figure 3). The tissue concentration of NMT was analyzed by HPLC. NMT was widely distributed in the tissues of mice, including in brain, liver, kidney, heart, and muscles. The tissue concentration of NMT was much higher than that of serum concentration, with one exception, the skin (Figure 3).\nTo measure NMT in the serum and tissues after long-term treatment with NMT, NMT dissolved in the drinking water (0.5%) was given to mice for 4 days. After that, mice were anesthetized by medetomidine (0.3 mg/kg body weight; FUJIFILM Wako Pure Chemical), butorphanol (5 mg/kg body weight; FUJIFILM Wako Pure Chemical), and midazolam (4 mg/kg body weight; FUJIFILM Wako Pure Chemical), and then blood and tissues were collected. Tissues were kept in −80 °C until use.\nas §1, §2"}, "Atrogin-1 and MuRF1": {"test_system": "Atrogin-1 and MuRF1", "experiment": "Gene expression of Atrogin-1 and MuRF1 in C2C12 myotubes (qRT-PCR)", "type": "cell-based, mouse", "conditions": "C2C12 myotubes treated with Dex and NMT", "experimental": "We tested whether these ubiquitin ligases are involved in the suppressive effect of NMT against muscle atrophy in the C2C12 myotube.\nTotal RNA was isolated from C2C12 cells using Sepasol Super G (Nacalai Tesque, Kyoto, Japan), and cDNA was generated by using ReverTra Ace (Toyobo, Osaka, Japan). Quantitative RT-PCR analysis was performed using Applied Biosystems StepOne (Applied Biosystems) with THUNDERBIRD SYBR qPCR Mix (Toyobo). The primers used are as follows: Atrogin-1 forward: 5′-TTCAG CAGCC TGAAC TACGA-3′, reverse: 5′-AGTAT CCATG GCGCT CCTTC-3′. MuRF1 forward: 5′-GCGTG ACCAC AGAGG GTAAA-3′, reverse: 5′-CTCTG CGTCC AGAGC GTG-3′. GAPDH forward: 5′-GCCGG TGCTG AGTAT GTCGT-3′, reverse: 5′-CCCTT TTGGC TCCAC CCTT-3′."}, "[4]": {"test_system": "taurine uptake in brain slices", "conditions": "cited from earlier work"}, "C2C12 myotubes [5]": {"test_system": "C2C12 myotubes", "conditions": "in vitro exposure to dexamethasone; cited from earlier work"}, "[6]": {"conditions": "rats; cited from earlier work"}, "taurine transport system": {"test_system": "taurine transport system", "conditions": "human intestine cells, cited from earlier work"}, "[7]": {"conditions": "drinking water containing 0.5% NMT for 4 days, average"}, "[8]": {"conditions": "Dex i.p. 10 mg/kg daily for 10 days, 0.5% NMT in drinking water"}},
  "note": "Read-outs that look alike come from different tables or passages of the source.",
  "data": [
    {"smiles": "C[C@@H]1C[C@H]2[C@@H]3CCC4=CC(=O)C=C[C@]4(C)[C@@]3(F)[C@@H](O)C[C@]2(C)[C@@]1(O)C(=O)CO", "note": "[Dex, dexamethasone, reference compound]", "values": [
      {"measurement": "effect on myotube width", "setting": "C2C12 myotubes [1]; Dex 50 μM", "result": "reduced the width of the myotube"},
      {"measurement": "effect on body weight", "setting": "ICR mice; Dex i.p. 10 mg/kg body weight daily", "result": "caused a continuous loss of body weight"}
    ]},
    {"smiles": "CNCCS(=O)(=O)O", "note": "[NMT, N-Methyltaurine]", "values": [
      {"measurement": "AUC(0-t)", "setting": "[2]; male, ICR, mouse, iv, i.v. 0.5 mg/kg BW, plasma", "result": 900, "unit": "ng·h/mL"},
      {"measurement": "bioavailability", "setting": "[2]; male, ICR, mouse, plasma, oral, 0.5 mg/kg, p.o. 0.5 mg/kg BW vs i.v. 0.5 mg/kg BW, read-out: bioavailability", "result": 96, "unit": "%"},
      {"measurement": "bioavailability", "setting": "[2]; male, ICR, mouse, plasma, oral, 5 mg/kg BW, p.o. 5 mg/kg BW vs i.v. 0.5 mg/kg BW, read-out: bioavailability", "result": 58, "unit": "%"},
      {"measurement": "AUC(0-t)", "setting": "[2]; male, ICR, mouse, po, p.o. 0.5 mg/kg BW, plasma", "result": 865, "unit": "ng·h/mL"},
      {"measurement": "AUC(0-t)", "setting": "[2]; male, ICR, mouse, po, p.o. 5 mg/kg BW, plasma", "result": 5250, "unit": "ng·h/mL"},
      {"measurement": "bioavailability", "setting": "[2]; p.o. 0.5 mg/kg BW vs i.v. 0.5 mg/kg BW, 0.5 mg/kg", "result": 96.1, "unit": "%"},
      {"measurement": "Kp at 4 days", "setting": "[3]; ICR, mouse, 0.5 % in drinking water, oral NMT, various tissues, skin is an exception, read-out: tissue NMT relative to serum concentration of NMT", "result": "10 to 100"},
      {"measurement": "Tissue NMT, brain", "setting": "[3]; [7]", "result": 0.84, "unit": "nmol/g wet"},
      {"measurement": "Tissue NMT, heart", "setting": "[3]; [7]", "result": 3.5, "unit": "nmol/g wet"},
      {"measurement": "Tissue NMT, kidney", "setting": "[3]; [7]", "result": 0.39, "unit": "nmol/g wet"},
      {"measurement": "Tissue NMT, liver", "setting": "[3]; [7]", "result": 0.50, "unit": "nmol/g wet"},
      {"measurement": "Tissue NMT, muscle", "setting": "[3]; [7]", "result": 0.17, "unit": "nmol/g wet"},
      {"measurement": "Tissue NMT, serum", "setting": "[3]; [7]", "result": 0.033, "unit": "nmol/g wet"},
      {"measurement": "Tissue NMT, skin", "setting": "[3]; [7]", "result": 0.019, "unit": "nmol/g wet"},
      {"measurement": "effect on Dex-induced decline in myotube width", "setting": "C2C12 myotubes [1]; Dex 50 μM + NMT 20 mM", "result": "prevented the decline in myotube width"},
      {"measurement": "effect on Dex-induced Atrogin-1 and MuRF1 gene expression", "setting": "Atrogin-1 and MuRF1", "result": "did not act by downregulating those genes"},
      {"measurement": "effect on Dex-induced loss in wet weight of gastrocnemius muscle", "setting": "ICR mice; [8]", "result": "attenuated Dex-induced loss in wet weight"},
      {"measurement": "effect on Dex-induced loss in wet weight of tibial anterior muscle", "setting": "ICR mice; [8]", "result": "attenuated Dex-induced loss in wet weight"},
      {"measurement": "effect on Dex-induced body weight loss", "setting": "ICR mice; Dex i.p. 10 mg/kg daily, 0.5% NMT in drinking water", "result": "attenuated body weight loss"},
      {"measurement": "effect on taurine uptake", "setting": "[4]", "result": "inhibits taurine uptake"}
    ]},
    {"smiles": "NCCS(=O)(=O)O", "note": "[taurine]", "values": [
      {"measurement": "effect on Dex-induced muscle atrophy in vitro", "setting": "C2C12 myotubes [5]", "result": "attenuates muscle atrophy"},
      {"measurement": "oral bioavailability", "setting": "[6]", "result": "~100", "unit": "%"},
      {"measurement": "concentration at which transport activity is almost saturated", "setting": "taurine transport system", "result": "~50", "unit": "µM"},
      {"measurement": "Km", "setting": "taurine transport system; read-out: Km of taurine transport", "result": 4.8, "unit": "µM"}
    ]}
  ]
}
